This experiment has as its target T1, estrogen receptor α ligand binding domain (ER-LBD) (Homo sapiens, UniProt P03372).
T1 construct: gene ESR1
T1 sequence (P03372 311-547 limits assumed): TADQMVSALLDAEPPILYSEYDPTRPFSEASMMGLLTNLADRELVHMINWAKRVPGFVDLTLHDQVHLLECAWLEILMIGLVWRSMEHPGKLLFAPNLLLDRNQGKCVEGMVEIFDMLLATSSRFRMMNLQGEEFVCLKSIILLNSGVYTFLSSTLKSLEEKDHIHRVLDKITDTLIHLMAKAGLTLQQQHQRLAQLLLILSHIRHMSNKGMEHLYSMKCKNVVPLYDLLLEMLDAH
The experiment can be described thus: competitive fluorescence polarization, displacement of coumestrol from purified ER-LBD. (In general: Polarisation of emitted light reports the rotation of a fluorescent probe.)

What is called IC50 is the midpoint of a concentration-inhibition curve. High values mean lower potency, low ones higher potency.

Molecule `C/C=C(/C(=C/C)c1ccc(O)cc1)c1ccc(O)cc1` [dienestrol] registered an IC50 of 0.0129 µM.
The molecule `CC[C@H](c1ccc(O)cc1)[C@@H](CC)c1ccc(O)cc1` [hexestrol] had a concentration for half-maximal inhibition (IC50) of 0.00927 µM.

For the origin of these results see paper PMC6387142, “Multi-Residue Method for the Analysis of Stilbene Estrogens in Milk” (International Journal of Molecular Sciences, 2019).
